Measured values taken from patent publication US10092492B2, “Cosmetic composition comprising spiculisporic acid and at least one surfactant” (L'OREAL, priority 2013, dated 2018).
Values joined by “and” are separate entries in the source; they are usually repeats but may differ in a detail not shown here. Equal values may be shown once. “Also recorded” adds a separate entry of the source.

Experiments:
[1] = Example 2: pH and macroscopic observation of S-acid neutralized with NaOH (R1=1.1) with surfactants, stored at 4° C.; format: physicochemical; conditions: for Macroscopic observation after 12 days after storage: stored in the dark at 4° C., listed as S-acid alone
Protocol: Solutions, containing S-acid at 4% or 8% (neutralized with an amount of NaOH calculated in order to obtain R1=1.1) and surfactants, were made, as shown in the table below:
The solutions were prepared according to the following procedure:
S-acid aqueous solution is prepared. The base is added under stirring. The resulting mixture is stirred at 40° C. Then the surfactant is added under stirring. The solution is then stored in the dark at 4° C.

[2] = Example 1: pH and aspect of S-acid solutions neutralized with NaOH (30%) or KOH (50%), stabilized at 4° C. and RT; format: physicochemical; set-up: key to aspect of the solution (precipitation mark): The marked solutions (*) correspond to precipitated solutions; conditions: for pH T4° C. 24 h / pH T4° C. 30 days / pH TRT 24 h / pH TRT 30 days / pH TRT t0: R1=2
Text: In order to neutralize spiculisporic acid (S-acid), two moles of base were used for one mole of S-acid, i.e., R1=2.
Increasing concentration ranges of S-acid from 1% to 10% were achieved, either with NaOH (solution at 30% m/m), or with KOH (solution at 50% m/m).
The solutions were made twice (A and B) in order to evaluate the reproducibility of the results. All the ranges of the neutralized solutions with both bases are limpid at t0 and the pH values obtained range from 5.19 to 6.79.
The marked solutions (*) correspond to precipitated solutions.

[3] = cited from earlier work
[4] = Example 2: aspect and pH of S-acid pre-solubilized with KOH (R1=2) in association with surfactants; format: physicochemical; conditions: for pH t0 RT / pH RT, 20 days after storage / pH T = 4° C., 20 days after storage: KOH R1=2
Text: Solutions, containing S-acid at 4% or 8% (neutralized with an amount of KOH calculated in order to obtain the di-potassium salt of S-acid, i.e., R1=2) and surfactants, were made.

[5] = KOH solution at 50%, S-acid 1%, A and B
[6] = KOH solution at 50%, S-acid 2%, A and B
[7] = NaOH solution at 30%, S-acid 1%, A and B
[8] = NaOH solution at 30%, S-acid 2%, A and B
[9] = S-acid 4% MA, surfactant 4% where present

pH t0 RT ([1]; S-acid 4% MA, NaOH R1=1.1): 4.89
pH t0 RT ([1]; S-acid 8% MA, NaOH): 5.11
pH T4° C. 24 h [2, 5]: 6.09 and 5.26
pH T4° C. 30 days [2, 5]: 5.86 and 5.39
pH TRT 24 h [2, 5]: 6.03 and 5.28
pH TRT 30 days [2, 5]: 5.69 and 5.18
pH TRT t0 [2, 5]: 5.93 and 5.22
pH T4° C. 24 h [2, 6]: 5.48 and 5.61
pH T4° C. 30 days [2, 6]: 5.46 and 5.53
pH TRT 24 h [2, 6]: 5.67 and 5.59
pH TRT 30 days [2, 6]: 5.39 and 5.59
pH TRT t0 [2, 6]: 5.4 and 5.19
aspect of the solution (precipitation mark) ([2]; KOH, S-acid 2%, 4° C. 24 h): *
aspect of the solution (precipitation mark) ([2]; KOH, S-acid 2%, 4° C. 30 days): *
aspect of the solution (precipitation mark) ([2]; KOH, S-acid 2%, RT 24 h): *
aspect of the solution (precipitation mark) ([2]; KOH, S-acid 2%, RT 30 days): *
pH T4° C. 24 h [2, 7]: 5.78 and 5.49
pH T4° C. 30 days [2, 7]: 5.69 and 5.41
pH TRT 24 h [2, 7]: 5.78 and 5.49
pH TRT 30 days [2, 7]: 5.59 and 5.42
pH TRT t0 ([2]; NaOH solution at 30%, S-acid 1%, duplicate solutions A and B): 5.66 and 5.37
pH T4° C. 24 h [2, 8]: 5.7 and 5.78
pH T4° C. 30 days [2, 8]: 5.72 and 5.69
pH TRT 24 h [2, 8]: 5.7 and 5.74
pH TRT 30 days [2, 8]: 5.64 and 5.49
pH TRT t0 ([2]; NaOH solution at 30%, S-acid 2%, duplicate solutions A and B): 5.64 and 5.6
aspect of the solution (precipitation mark) ([2]; NaOH, S-acid 2%, 4° C. 24 h): *
aspect of the solution (precipitation mark) ([2]; NaOH, S-acid 2%, 4° C. 30 days): *
aspect of the solution (precipitation mark) ([2]; NaOH, S-acid 2%, RT 30 days): *
stability of the solutions after 30 days at 4° C. ([2]; from 2% of S-acid, both bases (NaOH, KOH)): crystallization
pH t0 RT ([4]; S-acid 4% MA, surfactant 4% active material where present): 5.97
pH RT, 20 days after storage [4, 9]: 6.02
pH T = 4° C., 20 days after storage [4, 9]: 6.01
result after 20 days of storage at 4° C. (in words) ([4]; S-acid 4%, KOH R1=2, surfactant 4% where present): precipitation
pH RT, 20 days after storage ([4]; S-acid 8% MA, no surfactant): 6.47
pH T = 4° C., 20 days after storage ([4]; S-acid 8% MA, no surfactant): 6.47
pH t0 RT ([4]; S-acid 8% MA, no surfactant): 6.43
result after 20 days of storage at 4° C. (in words) ([4]; S-acid 8%, KOH R1=2, no surfactant): precipitation
Compound: CCCCCCCCCCC(C(=O)O)C1(C(=O)O)CCC(=O)O1 (centres unmarked) [S-acid, 4,5-dicarboxy-4-pentadecanolide]
Macroscopic observation after 12 days after storage ([1]; S-acid 4% MA, NaOH R1=1.1): precipitation; also recorded: precipitate
Macroscopic observation after 12 days after storage ([1]; S-acid 8% MA, NaOH): precipitation; also recorded: precipitate
solubility in water at a high temperature ([3]; high temperature): partly soluble
solubility in ethanol ([3]; room temperature): soluble
solubility in fats ([3]; room temperature): insoluble
solubility in water ([3]; room temperature): insoluble
